What all share (type): biochemical
The target in one assay is Pim-1 (Homo sapiens (Human), UniProt P11309). Nature of the assay: Pim-1 kinase assay. Particulars: 1 mM ATP; read-out: Pim1 IC50. The procedure: Supplementation of the STOP buffer with beads and stopping the reactions were done under reduced light. Prior to the stopping reactions STOP buffer with beads was preincubated for 1 h in the dark at room temperature. After stopping the reactions, plates were incubated for 1 h in the dark at room temperature before reading on a PHERAstar FS plate reader (BMG Labtech) under reduced light.

A further assay concerns the target Pim-2 (Homo sapiens (Human), UniProt Q9P1W9). Briefly: Pim-2 kinase assay. Particulars: 1 mM ATP; read-out: Pim2 IC50. The procedure:
Pim-2 kinase assay—20 μL reactions were run in white 384 well polystyrene plates dotted with 0.8 μL compound/DMSO in the assay buffer (50 mM Tris, pH 7.5, 0.01% Tween-20, 5 mM mgCl2, 0.01% BSA, 5 mM DTT), containing […] Fluorescein-labeled CREBtide peptide substrate (Invitrogen PV3508), 1 mM ATP, and 1 nM enzyme (Invitrogen PV3649) for 2 h at 25° C. Reactions were stopped by addition of 10 μL TR-FRET Dilution Buffer (Invitrogen PV3574) with 30 mM EDTA and 1.5 nM LanthaScreen Tb-CREB pSer133 antibody (Invitrogen PV3566). After 30 min. incubation at room temperature, plates were read on a PHERAstar FS plate reader (BMG Labtech).

The next assay concerns the target Pim-3 (Homo sapiens (Human), UniProt Q86V86). Nature of the assay: Pim-3 kinase assay. Particulars: 1 mM ATP; read-out: Pim3 IC50. The procedure:
Pim-1 and Pim-3 kinase assays-20 μL reactions were run in white 384 well polystyrene plates dotted with 0.8 μL compound/DMSO in the assay buffer (50 mM Tris, pH 7.5, 0.01% Tween-20, 5 mM mgCl2, 0.01% BSA, 5 mM DTT), containing […] Biotin-labeled BAD peptide substrate (AnaSpec 62269), 1 mM ATP, and 2.5 pM (Pim-1, Invitrogen PV3503) or 1.25 pM (Pim-3, Millipore 14-738) enzyme for 1 h at 25° C. Reactions were stopped by addition of 10 μL STOP Buffer (150 mM Tris, pH=7.5, 150 mM NaCl, 75 mM EDTA, 0.01% Tween-20, 0.3% BSA,) supplemented with Phospho-Bad (Ser112) Antibody (Cell Signaling 9291) diluted 666-fold, and Streptavidin donor beads (PerkinElmer 6760002) along with Protein-A acceptor beads (PerkinElmer 6760137) at 15 μg/mL each. Supplementation of the STOP buffer with beads and stopping the reactions were done under reduced light. Prior to the stopping reactions STOP buffer with beads was preincubated for 1 h in the dark at room temperature. After stopping the reactions, plates were incubated for 1 h in the dark at room temperature before reading on a PHERAstar FS plate reader (BMG Labtech) under reduced light.

Molecules are shown by their SMILES. Some results are limits rather than exact numbers.

Pim-2, sequence (Q9P1W9 whole entry): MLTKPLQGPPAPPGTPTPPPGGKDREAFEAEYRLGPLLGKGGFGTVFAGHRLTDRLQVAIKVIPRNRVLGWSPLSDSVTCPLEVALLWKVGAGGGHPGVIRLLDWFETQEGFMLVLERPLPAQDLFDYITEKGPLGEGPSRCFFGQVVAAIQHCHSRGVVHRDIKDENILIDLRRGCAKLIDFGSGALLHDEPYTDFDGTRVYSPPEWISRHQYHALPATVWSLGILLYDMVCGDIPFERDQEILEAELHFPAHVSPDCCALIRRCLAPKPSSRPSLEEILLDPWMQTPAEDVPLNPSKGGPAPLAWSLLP
Pim-1, sequence (P11309 whole entry): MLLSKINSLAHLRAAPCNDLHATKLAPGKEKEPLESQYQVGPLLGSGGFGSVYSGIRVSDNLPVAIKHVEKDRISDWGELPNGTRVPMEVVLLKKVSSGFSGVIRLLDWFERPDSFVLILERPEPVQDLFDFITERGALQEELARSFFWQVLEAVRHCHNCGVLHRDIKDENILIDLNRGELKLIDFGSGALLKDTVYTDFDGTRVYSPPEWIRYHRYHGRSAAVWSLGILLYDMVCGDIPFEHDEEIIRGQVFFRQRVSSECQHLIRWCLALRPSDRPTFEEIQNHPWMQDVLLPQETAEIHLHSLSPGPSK

As to `C[C@@H]1C[C@H](N)CN(c2c(NCc3ccc(F)c(-c4c(F)cccc4F)n3)cnc3c2CCC3O)C1` (single isomer, unassigned) [Example 87 (Diastereoisomer 1)], the IC50 at Pim-1 is less than 10 nM; at Pim-2 it was 1000 to 10000 nM; on Pim-3, 10 to 50 nM.

As for `C[C@@H]1C[C@H](N)CN(c2c(NCc3ccc(F)c(-c4c(F)cccc4F)n3)cnc3c2CC[C@H]3O)C1` (single isomer, unassigned) [Example 87 (Diastereoisomer 2)], the IC50 at Pim-1 is less than 10 nM; at Pim-2, 100 to 1000 nM; on Pim-3 it was 10 to 50 nM.

On to `N[C@H]1C[C@@H](C(F)(F)F)CN(c2ccncc2NCc2ccc(F)c(-c3c(F)cc(N4CCOCC4)cc3F)n2)C1` (stereo in doubt) [Example 34, 4-((3S, SR)-3-Amino-5-(trifluoromethyl)piperidin-1-yl)-N-((6-(2,6-difluoro-4-morpholinophenyl)-5-fluoropyridin-2-yl)methyl)pyridin-3-amine], for which the IC50 at Pim-1 was less than 10 nM; on Pim-2, not above 100 nM; on Pim-3, not above 10 nM.

Consider `C[C@H]1CN(c2ccncc2NCc2ccc(F)c(-c3c(F)cc(C4(O)CCOC4)cc3F)n2)C[C@@H](N)[C@@H]1O` (stereo partly drawn) [Example 1, (3R,4R,5S)-3-Amino-1-{3-[({6-[2,6-difluoro-4-(3-hydroxytetrahydrofuran-3-yl)phenyl]-5-fluoropyridin-2-yl}methyl)amino]pyridin-4-yl}-5-methylpiperidin-4-ol], for which the IC50 on Pim-1 was less than 10 nM; on Pim-2, not above 100 nM; at Pim-3, not above 10 nM.

Take `C[C@H]1CN(c2ccncc2NCc2ccc(F)c(-c3c(F)cc(C4(O)CCC4)cc3F)n2)C[C@@H](N)[C@@H]1O` [Example 2, (3R,4R,5S)-3-Amino-1-(3-(((6-(2,6-difluoro-4-(1-hydroxycyclobutyl)phenyl)-5-fluoropyridin-2-yl)methyl)amino)pyridin-4-yl)-5-methylpiperidin-4-ol]: the values for the half-maximal inhibitory concentration (IC50) on Pim-1, at Pim-2 and at Pim-3 were less than 10 nM, not above 100 nM and not above 10 nM, respectively.

In the case of `C[C@H]1CN(c2ccncc2NCc2ccc(F)c(-c3c(F)cc(C4(O)CCOCC4)cc3F)n2)C[C@@H](N)[C@@H]1O` [Example 3, (3R,4R,5S)-3-Amino-1-(3-(((6-(2,6-difluoro-4-(4-hydroxytetrahydro-2H-pyran-4-yl)phenyl)-5-fluoropyridin-2-yl)methyl)amino)pyridin-4-yl)-5-methylpiperidin-4-ol], the IC50 at Pim-1 was less than 10 nM; on Pim-2, not above 100 nM; on Pim-3, not above 10 nM.

With `C[C@@H]1C[C@H](N)CN(c2ccncc2NCc2ccc(F)c(-c3c(F)cc(C4(O)CCOC4)cc3F)n2)C1` (stereo partly drawn) [Example 4, 3-(4-{6-[({4-[(3S,5R)-3-Amino-5-methylpiperidin-1-yl]pyridin-3-yl}amino)methyl]-3-fluoropyridin-2-yl}-3,5-difluorophenyl)tetrahydrofuran-3-ol], the 50% inhibitory concentration (IC50) is less than 10 nM at Pim-1, not above 100 nM at Pim-2 and not above 10 nM on Pim-3.

On to `C[C@@H]1C[C@H](N)CN(c2ccncc2NCc2ccc(F)c(-c3c(F)cc(C4(O)CCC4)cc3F)n2)C1` [Example 5, 1-(4-(6-((4-((3S,5R)-3-Amino-5-methylpiperidin-1-yl)pyridin-3-ylamino)methyl)-3-fluoropyridin-2-yl)-3,5-difluorophenyl)cyclobutanol], for which the half-inhibitory concentration (IC50) is less than 10 nM at Pim-1, not above 100 nM on Pim-2 and not above 10 nM at Pim-3.

Take `C[C@@H]1C[C@H](N)CN(c2ccncc2NCc2ccc(F)c(-c3c(F)cc(C4(O)CCOCC4)cc3F)n2)C1` [Example 6, 4-(4-(6-((4-((3S,5R)-3-Amino-5-methylpiperidin-1-yl)pyridin-3-ylamino)methyl)-3-fluoropyridin-2-yl)-3,5-difluorophenyl)tetrahydro-2H-pyran-4-ol]: the IC50 on Pim-1 was less than 10 nM; at Pim-2, not above 100 nM; at Pim-3, not above 10 nM.

`N[C@H]1C[C@@H](C(F)(F)F)CN(c2ccncc2NCc2ccc(F)c(-c3c(F)cc(C4(O)CCC4)cc3F)n2)C1` [Example 7, 1-(4-{6-[({4-[(3S,5R)-3-Amino-5-(trifluoromethyl)piperidin-1-yl]pyridin-3-yl}amino)methyl]-3-fluoropyridin-2-yl}-3,5-difluorophenyl)cyclobutanol]: the IC50 was less than 10 nM on Pim-1, not above 100 nM on Pim-2 and not above 10 nM at Pim-3.

Consider `C[C@H]1CN(c2ccncc2NCc2ccc(F)c(-c3c(F)cc(C4(O)CC4)cc3F)n2)C[C@@H](N)[C@@H]1O` [Example 8, (3R,4R,5S)-3-Amino-1-{3-[({6-[2,6-difluoro-4-(1-hydroxycyclopropyl)phenyl]-5-fluoropyridin-2-yl}methyl)amino]pyridin-4-yl}-5-methylpiperidin-4-ol], for which the IC50 on Pim-1 is less than 10 nM; on Pim-2, 100 to 1000 nM; on Pim-3 it was not above 10 nM.

On to `C[C@H]1CN(c2ccncc2NCc2ccc(F)c(-c3c(F)ccc(C4(O)CC4)c3F)n2)C[C@@H](N)[C@@H]1O` [Example 9, (3R,4R,5S)-3-Amino-1-(3-(((6-(2,6-difluoro-3-(1-hydroxycyclopropyl)phenyl)-5-fluoropyridin-2-yl)methyl)amino)pyridin-4-yl)-5-methylpiperidin-4-ol], for which the half-inhibitory concentration (IC50) on Pim-1 was less than 10 nM; on Pim-2 it was 100 to 1000 nM; at Pim-3, not above 10 nM.

Turning to `C[C@@H]1C[C@H](N)CN(c2ccncc2NCc2ccc(F)c(-c3c(F)cc(C4(O)CC4)cc3F)n2)C1` [Example 10, 1-(4-{6-[({4-[(3S,5R)-3-Amino-5-methylpiperidin-1-yl]pyridin-3-yl}amino)methyl]-3-fluoropyridin-2-yl}-3,5-difluorophenyl)cyclopropanol], the IC50 is less than 10 nM at Pim-1, not above 100 nM on Pim-2 and not above 10 nM on Pim-3.

As for `C[C@@H]1C[C@H](N)CN(c2ccncc2NCc2ccc(F)c(-c3c(F)ccc(C4(O)CC4)c3F)n2)C1` [Example 11, 1-(3-(6-((4-((3S,5R)-3-Amino-5-methylpiperidin-1-yl)pyridin-3-ylamino)methyl)-3-fluoropyridin-2-yl)-2,4-difluorophenyl)cyclopropanol], the results for the IC50 on Pim-1, on Pim-2 and on Pim-3 were less than 10 nM, 100 to 1000 nM and not above 10 nM, respectively.

With `C[C@H]1CN(c2ccncc2NCc2ccc(F)c(-c3c(F)cc(CC(C)(C)O)cc3F)n2)C[C@@H](N)[C@@H]1O` [Example 12, (3R,4R,5S)-3-Amino-1-{3-[({6-[2,6-difluoro-4-(2-hydroxy-2-methylpropyl)phenyl]-5-fluoropyridin-2-yl}methyl)amino]pyridin-4-yl}-5-methylpiperidin-4-ol], the results for the IC50 at Pim-1, on Pim-2 and at Pim-3 were less than 10 nM, not above 100 nM and not above 10 nM, respectively.

For `C[C@@H]1C[C@H](N)CN(c2ccncc2NCc2ccc(F)c(-c3c(F)cc(CC(C)(C)O)cc3F)n2)C1` [Example 13, 1-(4-{6-[({4-[(3S,5R)-3-Amino-5-methylpiperidin-1-yl]pyridin-3-yl}amino)methyl]-3-fluoropyridin-2-yl}-3,5-difluorophenyl)-2-methylpropan-2-ol], the IC50 was less than 10 nM at Pim-1, not above 100 nM at Pim-2 and not above 10 nM on Pim-3.

For `C[C@H]1CN(c2ccncc2NCc2ccc(F)c(-c3c(F)cccc3F)n2)C[C@@H](N)[C@@H]1O` [Example 14, (3R,4R,5S)-3-Amino-1-[3-({[6-(2,6-difluorophenyl)-5-fluoropyridin-2-yl]methyl}amino)pyridin-4-yl]-5-methylpiperidin-4-ol], the IC50 at Pim-1 is less than 10 nM; on Pim-2 it was not above 100 nM; at Pim-3, not above 10 nM.

Take `COc1cccc(F)c1-c1nc(CNc2cnccc2N2C[C@@H](N)[C@H](O)[C@@H](C)C2)ccc1F` [Example 15, (3R,4R,5S)-3-Amino-1-(3-(((5-fluoro-6-(2-fluoro-6-methoxyphenyl)pyridin-2-yl)methyl)amino)pyridin-4-yl)-5-methylpiperidin-4-ol]: the IC50 at Pim-1 was less than 10 nM; on Pim-2, 100 to 1000 nM; at Pim-3, not above 10 nM.

For the compound `C[C@H]1CN(c2ccncc2NCc2ccc(F)c(-c3c(F)cncc3F)n2)C[C@@H](N)[C@@H]1O` [Example 16, (3R,4R,5S)-3-Amino-5-methyl-1-(3-(((3,3′,5′-trifluoro-[2,4′-bipyridin]-6-yl)methyl)amino)pyridin-4-yl)piperidin-4-ol], the IC50 at Pim-1 is less than 10 nM; on Pim-2, 100 to 1000 nM; on Pim-3, not above 10 nM.

By IC50 is commonly meant the concentration that inhibits the measured activity by half.

The values above are taken from patent US9802918B2, “Pyridineamine compounds useful as Pim kinase inhibitors” (Incyte Corporation, priority 2015, dated 2017).
